Data taken from PMC10141580, “Cyclic Dichalcogenides Extend the Reach of Bioreductive Prodrugs to Harness Thiol/Disulfide Oxidoreductases: Applications to seco-Duocarmycins Targeting the Thioredoxin System” (ACS Central Science, 2023).
Where “and” joins values, the source holds several entries; their conditions need not be identical. Equal values may be shown once. Read-outs that look alike come from different tables or passages of the source.

Tested on: NCI-60 standardized human tumor cell line panel
Assay: cells
Type: cell-based

For `COc1cc2cc(C(=O)N3C[C@@H](CCl)c4c3cc(OC(=O)N(CCC(=O)N3CCN(C)CC3)C3CCCCC3)c3ccccc43)[nH]c2c(OC)c1OC` [P-CC60-CBI-TMI], the GI50 (SN12C, read-out: GI50) was 1200 nM, the GI50 (SNB-19, read-out: GI50) was 2200 nM and the GI50 (SR, read-out: GI50) was 280 nM. The GI50 (SW-620, read-out: GI50) was 1900 nM, the GI50 (T-47D, read-out: GI50) was 1900 nM and the “NCI-60 screening: Log(GI50)” value (TK-10 (RE) cell line, log10 of GI50 in M) was -5.55. The GI50 (TK-10 (RE) cell line, read-out: NCI-60 screening: Raw GI50) was 2800 nM, the GI50 (TK-10, read-out: GI50) was 2800 nM and the GI50 (U251, read-out: GI50) was 1500 nM. For the same compound, the GI50 (UACC-62, read-out: GI50) was 1500 nM, the GI50 (UACC-257, read-out: GI50) was 2000 nM and the “NCI-60 screening: Log(GI50)” value (cell line A549/ATCC (LC:A549/ATCC), TMI sheet) was -5.7. For the same compound, the GI50 (cell line A549/ATCC (LC:A549/ATCC), TMI sheet, read-out: NCI-60 screening: Raw GI50) was 2000 nM, the “NCI-60 screening: Log(GI50)” value (cell line BT-549 (BR:BT-549), TMI sheet) was -5.8 and the GI50 (cell line BT-549 (BR:BT-549), TMI sheet, read-out: NCI-60 screening: Raw GI50) was 1600 nM. The “NCI-60 screening: Log(GI50)” value (cell line CCRF-CEM (LE:CCRF-CEM), TMI sheet) was -6, the “NCI-60 screening: Log(GI50)” value (cell line COLO 205 (CO:COLO 205), TMI sheet) was -5.86 and the GI50 (cell line COLO 205 (CO:COLO 205), TMI sheet, read-out: NCI-60 screening: Raw GI50) was 1400 nM. For the same compound, the “NCI-60 screening: Log(GI50)” value (cell line EKVX (LC:EKVX), TMI sheet) was -5.71, the GI50 (cell line EKVX (LC:EKVX), TMI sheet, read-out: NCI-60 screening: Raw GI50) was 1900 nM and the “NCI-60 screening: Log(GI50)” value (cell line HCC-2998 (CO:HCC-2998), TMI sheet) was -5.82. The GI50 (cell line HCC-2998 (CO:HCC-2998), TMI sheet, read-out: NCI-60 screening: Raw GI50) was 1500 nM, the “NCI-60 screening: Log(GI50)” value (cell line HCT-15 (CO:HCT-15), TMI sheet) was -5.76 and the GI50 (cell line HCT-15 (CO:HCT-15), TMI sheet, read-out: NCI-60 screening: Raw GI50) was 1700 nM. For the same compound, the “NCI-60 screening: Log(GI50)” value (cell line HCT-116 (CO:HCT-116), TMI sheet) was -5.82, the GI50 (cell line HCT-116 (CO:HCT-116), TMI sheet, read-out: NCI-60 screening: Raw GI50) was 1500 nM and the “NCI-60 screening: Log(GI50)” value (cell line HL-60(TB) (LE:HL-60(TB)), TMI sheet) was -6.12. The “NCI-60 screening: Log(GI50)” value (cell line HOP-62 (LC:HOP-62), TMI sheet) was -6.23, the GI50 (cell line HOP-62 (LC:HOP-62), TMI sheet, read-out: NCI-60 screening: Raw GI50) was 590 nM and the “NCI-60 screening: Log(GI50)” value (cell line HOP-92 (LC:HOP-92), TMI sheet) was -5.6. The “NCI-60 screening: Log(GI50)” value (cell line HT29 (CO:HT29), TMI sheet) was -5.82, the GI50 (cell line HT29 (CO:HT29), TMI sheet, read-out: NCI-60 screening: Raw GI50) was 1500 nM and the “NCI-60 screening: Log(GI50)” value (cell line K-562 (LE:K-562), TMI sheet) was -6.17. For the same compound, the “NCI-60 screening: Log(GI50)” value (cell line KM12 (CO:KM12), TMI sheet) was -5.68, the GI50 (cell line KM12 (CO:KM12), TMI sheet, read-out: NCI-60 screening: Raw GI50) was 2100 nM and the “NCI-60 screening: Log(GI50)” value (cell line LOX IMVI (ME:LOX IMVI), TMI sheet) was -5.96. The GI50 (cell line LOX IMVI (ME:LOX IMVI), TMI sheet, read-out: NCI-60 screening: Raw GI50) was 1100 nM, the “NCI-60 screening: Log(GI50)” value (cell line M14 (ME:M14), TMI sheet) was -5.82 and the GI50 (cell line M14 (ME:M14), TMI sheet, read-out: NCI-60 screening: Raw GI50) was 1500 nM. For the same compound, the “NCI-60 screening: Log(GI50)” value (cell line MALME-3M (ME:MALME-3M), TMI sheet) was -5.8, the GI50 (cell line MALME-3M (ME:MALME-3M), TMI sheet, read-out: NCI-60 screening: Raw GI50) was 1600 nM and the “NCI-60 screening: Log(GI50)” value (cell line MCF7 (BR:MCF7), TMI sheet) was -6.5. The “NCI-60 screening: Log(GI50)” value (cell line MDA-MB-435 (ME:MDA-MB-435), TMI sheet) was -5.75, the “NCI-60 screening: Log(GI50)” value (cell line MOLT-4 (LE:MOLT-4), TMI sheet) was -6.23 and the GI50 (cell line MOLT-4 (LE:MOLT-4), TMI sheet, read-out: NCI-60 screening: Raw GI50) was 590 nM. The “NCI-60 screening: Log(GI50)” value (cell line NCI-H23 (LC:NCI-H23), TMI sheet) was -6.33, the “NCI-60 screening: Log(GI50)” value (cell line NCI-H226 (LC:NCI-H226), TMI sheet) was -5.84 and the GI50 (cell line NCI-H226 (LC:NCI-H226), TMI sheet, read-out: NCI-60 screening: Raw GI50) was 1400 nM. The “NCI-60 screening: Log(GI50)” value (cell line RPMI-8226 (LE:RPMI-8226), TMI sheet) was -5.83, the GI50 (cell line RPMI-8226 (LE:RPMI-8226), TMI sheet, read-out: NCI-60 screening: Raw GI50) was 1500 nM and the “NCI-60 screening: Log(GI50)” value (cell line SF-268 (CNS:SF-268), TMI sheet) was -5.81. For the same compound, the GI50 (cell line SF-268 (CNS:SF-268), TMI sheet, read-out: NCI-60 screening: Raw GI50) was 1500 nM, the “NCI-60 screening: Log(GI50)” value (cell line SF-295 (CNS:SF-295), TMI sheet) was -5.81 and the GI50 (cell line SF-295 (CNS:SF-295), TMI sheet, read-out: NCI-60 screening: Raw GI50) was 1500 nM. The “NCI-60 screening: Log(GI50)” value (cell line SF-539 (CNS:SF-539), TMI sheet) was -5.88, the “NCI-60 screening: Log(GI50)” value (cell line SK-MEL-5 (ME:SK-MEL-5), TMI sheet) was -5.79 and the GI50 (cell line SK-MEL-5 (ME:SK-MEL-5), TMI sheet, read-out: NCI-60 screening: Raw GI50) was 1600 nM. The “NCI-60 screening: Log(GI50)” value (cell line SK-MEL-28 (ME:SK-MEL-28), TMI sheet) was -5.45, the “NCI-60 screening: Log(GI50)” value (cell line SNB-19 (CNS:SNB-19), TMI sheet) was -5.65 and the GI50 (cell line SNB-19 (CNS:SNB-19), TMI sheet, read-out: NCI-60 screening: Raw GI50) was 2200 nM. The “NCI-60 screening: Log(GI50)” value (cell line SR (LE:SR), TMI sheet) was -6.56, the “NCI-60 screening: Log(GI50)” value (cell line SW-620 (CO:SW-620), TMI sheet) was -5.72 and the GI50 (cell line SW-620 (CO:SW-620), TMI sheet, read-out: NCI-60 screening: Raw GI50) was 1900 nM. For the same compound, the “NCI-60 screening: Log(GI50)” value (cell line T-47D (BR:T-47D), TMI sheet) was -5.72, the GI50 (cell line T-47D (BR:T-47D), TMI sheet, read-out: NCI-60 screening: Raw GI50) was 1900 nM and the “NCI-60 screening: Log(GI50)” value (cell line U251 (CNS:U251), TMI sheet) was -5.82. For the same compound, the GI50 (cell line U251 (CNS:U251), TMI sheet, read-out: NCI-60 screening: Raw GI50) was 1500 nM, the “NCI-60 screening: Log(GI50)” value (cell line UACC-62 (ME:UACC-62), TMI sheet) was -5.82 and the GI50 (cell line UACC-62 (ME:UACC-62), TMI sheet, read-out: NCI-60 screening: Raw GI50) was 1500 nM. For the same compound, the “NCI-60 screening: Log(GI50)” value (cell line UACC-257 (ME:UACC-257), TMI sheet) was -5.7, the GI50 (cell line UACC-257 (ME:UACC-257), TMI sheet, read-out: NCI-60 screening: Raw GI50) was 2000 nM and the GI50 (read-out: GI50) was 1500 nM and 2400 nM. The GI50 (read-out: NCI-60 screening: Raw GI50) was 1500 nM.
